# Read-outs that look alike come from different tables or passages of the source. Where a SMILES comes first, the peptide text is derived from it. Bridges are numbered along the chain shown (N, C = ends). Roman numbers before positions name the chains, in order. [ ]: non-standard residue; d: D form. βAla = NCCC(=O)O
# Assays:
# [1] = molecular target: T1, EphA2 extracellular domain fused to Fc (EphA2-Fc) (Homo sapiens, UniProt P29317); test: ELISA: inhibition of ephrinA5-AP binding to immobilized EphA2-Fc
# T1 construct: immobilized EphA2 extracellular domain fused to the Fc portion of an antibody (EphA2-Fc)
# T1 sequence (P29317 24-537 limits assumed): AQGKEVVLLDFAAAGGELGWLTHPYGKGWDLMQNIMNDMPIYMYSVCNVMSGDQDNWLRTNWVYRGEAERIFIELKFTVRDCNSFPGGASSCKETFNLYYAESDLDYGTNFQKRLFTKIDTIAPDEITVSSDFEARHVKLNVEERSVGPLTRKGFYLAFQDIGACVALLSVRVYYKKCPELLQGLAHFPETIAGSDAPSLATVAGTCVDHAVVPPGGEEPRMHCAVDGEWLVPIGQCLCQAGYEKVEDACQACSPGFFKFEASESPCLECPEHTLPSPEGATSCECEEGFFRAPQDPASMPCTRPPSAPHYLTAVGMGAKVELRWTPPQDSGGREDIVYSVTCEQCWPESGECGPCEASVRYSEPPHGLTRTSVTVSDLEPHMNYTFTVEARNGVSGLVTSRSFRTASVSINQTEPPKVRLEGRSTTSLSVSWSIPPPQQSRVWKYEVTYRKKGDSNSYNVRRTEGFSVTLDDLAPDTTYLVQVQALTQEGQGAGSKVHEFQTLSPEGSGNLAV
# Excerpt: FIG. 1A-1C illustrates an example of Potency and selectivity of EphA2-targeting dimeric peptides. (FIG. 1A) ELISAs comparing the ability of the peptides to inhibit binding of ephrin-A5 fused to alkaline phosphatase (ephrinA5-AP) to the immobilized EphA2 extracellular domain fused to the Fc portion of an antibody (EphA2-Fc). The graphs show averages ±SD from triplicate measurements from a representative experiment. IC50 values calculated from the fitted curves in each experiment are shown. Averages of IC50 values obtained from multiple experiments are shown in panel FIG. 1B and Table 3. The 10 nM peptide concentration is outlined in red. (FIG. 1B) Plot of the average IC50 values (listed in Table 3) for different ligands. […] (FIG. 1C) EphrinA5-AP binding to EphA receptors and ephrinB2-AP binding to EphB receptors in the presence of dimeric peptides representing each of the three configurations. Values are normalized to ephrin binding without peptide. The graphs show averages and SDs from triplicate measurements (with each measurement shown as a dot).
# [2] = Peptide solubility in PBS/H2O/DMSO; type: physicochemical
# Description: Peptide identity and purity are documented by mass spectrometry and high-performance liquid chromatography (HPLC). The peptide solubility values are determined. Concentrated peptide stocks are prepared in DMSO or H2O and stored frozen at −80° C.
# [3] = molecular target: EphA2 (Homo sapiens, UniProt P29317); test: EphA2 autophosphorylation on tyrosine 588 in PC3 cells (immunoblot dose-response); type: cell-based; design: EphA2 is the prevalent endogenously expressed EphA receptor in these cells; endogenous in cells; host or cells: PC3 prostate cancer cells; settings: read-out: EC50 PY588
# EphA2, sequence (P29317 24-976): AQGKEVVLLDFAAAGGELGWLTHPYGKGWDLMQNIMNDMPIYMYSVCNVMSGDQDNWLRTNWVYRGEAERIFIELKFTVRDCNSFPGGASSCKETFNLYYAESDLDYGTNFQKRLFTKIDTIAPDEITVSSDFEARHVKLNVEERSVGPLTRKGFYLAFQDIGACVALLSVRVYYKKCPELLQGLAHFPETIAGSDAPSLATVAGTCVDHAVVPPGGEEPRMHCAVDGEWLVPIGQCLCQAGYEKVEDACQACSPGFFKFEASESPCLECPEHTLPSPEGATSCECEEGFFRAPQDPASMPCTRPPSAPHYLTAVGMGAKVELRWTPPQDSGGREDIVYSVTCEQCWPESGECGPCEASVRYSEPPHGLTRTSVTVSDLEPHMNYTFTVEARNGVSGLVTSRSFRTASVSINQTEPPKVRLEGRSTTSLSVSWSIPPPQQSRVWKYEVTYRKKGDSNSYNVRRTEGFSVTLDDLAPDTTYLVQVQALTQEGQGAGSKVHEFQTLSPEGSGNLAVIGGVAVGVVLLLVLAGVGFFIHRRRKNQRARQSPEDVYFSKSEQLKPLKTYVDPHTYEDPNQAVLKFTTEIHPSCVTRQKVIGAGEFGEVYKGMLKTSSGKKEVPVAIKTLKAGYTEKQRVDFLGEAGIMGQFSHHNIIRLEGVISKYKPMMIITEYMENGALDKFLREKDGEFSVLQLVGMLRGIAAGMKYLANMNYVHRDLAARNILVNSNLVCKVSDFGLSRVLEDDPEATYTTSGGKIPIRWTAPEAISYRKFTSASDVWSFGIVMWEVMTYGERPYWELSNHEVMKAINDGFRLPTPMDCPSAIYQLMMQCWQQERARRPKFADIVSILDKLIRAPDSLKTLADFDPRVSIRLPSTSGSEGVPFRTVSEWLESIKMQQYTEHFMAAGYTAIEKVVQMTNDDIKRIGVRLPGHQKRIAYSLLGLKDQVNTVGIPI
# Description: (FIG. 2A) Dose-response curves for EphA2 autophosphorylation on tyrosine 588 (pY588; purple) and for downstream inhibition of AKT phosphorylation (magenta). PC3 cells were treated for 15 min with different concentrations of the indicated peptides. […] The graphs show quantifications from multiple blots (averages ±SE; the number of experiments used to generate each curve is shown in Table 3). […] (FIG. 2B) Examples of immunoblots of lysates from PC3 cells treated with the indicated concentrations of representative ligands. […] A white vertical line indicates removal of irrelevant lanes. […] The bars show averages ±SE, and the individual measurements are shown as black dots. […] Plots of Etop versus EC50 for pY588 in FIG. 2D and for pAKT inh in FIG. 2E. Averages ±SE are shown for the peptides and ephrinA1.
# To examine the agonistic properties of the different dimeric peptide ligands, EphA2 autophosphorylation on tyrosine 588 (Y588) was measured, which is indicative of receptor activation and mediates binding of SH2 domain-containing proteins that link EphA2 to various downstream signaling pathways (FIG. 7). For these experiments, PC3 prostate cancer cells were stimulated with the dimeric peptides because EphA2 is the prevalent endogenously expressed EphA receptor in these cells, allowing comparisons with ephrins.
# [4] = molecular target: T2, EphA2 LBD (Homo sapiens, UniProt P29317); test: Isothermal titration calorimetry (ITC) with soluble EphA2 LBD; type: binding
# T2 construct: made in house; host or cells: E. coli Origami 2(DE3)
# T2 sequence (P29317 28-200): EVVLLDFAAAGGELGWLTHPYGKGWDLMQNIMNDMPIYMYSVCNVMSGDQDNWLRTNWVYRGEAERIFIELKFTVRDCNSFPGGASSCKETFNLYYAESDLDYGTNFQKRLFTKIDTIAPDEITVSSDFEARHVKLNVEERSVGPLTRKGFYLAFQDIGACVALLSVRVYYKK
# Description: (FIG. 10A-10E) The EphA2 LBD was titrated at 200-250 μM into 10-12.5 μM of the indicated peptide.
# For ITC, all peptides are dissolved in DMSO and both the EphA2 LBD and the peptides are diluted to obtain a final buffer containing 9.5 mM HEPES, pH 7.9, 95 mM NaCl, and 5% DMSO. The experiments are carried out at 296 K (23° C.) using an ITC200 calorimeter (Microcal). Two-microliter aliquots of a peptide solution are injected into the cell containing 205 μL EphA2 LBD. 200-400 μM peptides are titrated into 20-40 μM EphA2 LBD. Experimental data are analyzed using the Origin software package (Microcal). The integrated values for the reaction heats are normalized to the amount of injected peptide after blank subtraction.
# [5] = DMSO, third of PBS/H2O/DMSO, read-out: Solubility in DMSO
# [6] = H2O, Table 4, second of PBS/H20/DMSO, read-out: Solubility in H20
# [7] = H2O, second of PBS/H2O/DMSO, read-out: Solubility in H2O
# [8] = PBS, first of PBS/H2O/DMSO, read-out: Solubility in PBS
# [9] = Table 3, inhibition of EphA2-ephrinA5 interaction, averages ± SD, read-out: ICsa (nM) by ELISA
# [10] = PBS, Table 4, first of PBS/H20/DMSO, read-out: Solubility in PBS
# [11] = DMSO, Table 4, third of PBS/H20/DMSO, read-out: Solubility in DMSO
Compound,"ICsa (nM) by ELISA ([1]; Table 3, inhibition of EphA2-ephrinA5 interaction, averages ± SD)","solubility [2, 5] [mg/mL]","solubility [2, 6] [mg/mL]","solubility [2, 7] [mg/mL]","solubility [2, 8] [mg/mL]","IC50 [1, 9] [nM]",EC50 [3] [nM],"solubility [2, 10] [mg/mL]","solubility [2, 11] [mg/mL]","IC50 ([1]; inhibition of ephrin-A5 binding to EphA2, number of experiments in parentheses, read-out: Inc50 (nM) by ELISA) [nM]",Kd [4] [nM],"solubility ([2]; water, Table 4, second of PBS/H20/DMSO, read-out: Solubility in H20) [mg/mL]",binding to the EphA2 LBD by ITC ([4]; high biotin concentration (1 mM))
CC(C)C[C@H](NC(=O)[C@H](Cc1c[nH]c2ccccc12)NC(=O)[C@H](C)NC(=O)CNC(=O)[C@@H](N)CSSC[C@H](N)C(=O)NCC(=O)N[C@@H](C)C(=O)N[C@@H](Cc1c[nH]c2ccccc12)C(=O)N[C@@H](CC(C)C)C(=O)N[C@@H](C)C(=O)N[C@@H](Cc1ccc(O)cc1)C(=O)N1CCC[C@H]1C(=O)N[C@@H](CC(=O)O)C(=O)N[C@@H](CO)C(=O)N[C@H](C(=O)N1CCC[C@H]1C(=O)N[C@@H](Cc1ccc(O)cc1)C(=O)N[C@@H](CCCNC(=N)N)C(=O)O)C(C)C)C(=O)N[C@@H](C)C(=O)N[C@@H](Cc1ccc(O)cc1)C(=O)N1CCC[C@H]1C(=O)N[C@@H](CC(=O)O)C(=O)N[C@@H](CO)C(=O)N[C@H](C(=O)N1CCC[C@H]1C(=O)N[C@@H](Cc1ccc(O)cc1)C(=O)N[C@@H](CCCNC(=N)N)C(=O)O)C(C)C [compound 4] (I: H-CGAWLAYPDSVPYR-OH / II: H-CGAWLAYPDSVPYR-OH; disulfide I:1-II:1; C-terminus assumed),–,10,–,< 0.1,< 0.1,–,–,< 0.1,10,7.9 ± 1.9,104 ± 1,< 0.1,–
"O=C(O)CCCC[C@@H]1SC[C@@H]2NC(=O)N[C@@H]21 [free biotin, biotin, reference compound]",–,–,–,–,–,–,–,–,–,–,–,–,did not detect binding

# Second part, led by results:
"ICsa (nM) by ELISA ([1]; Table 3, inhibition of EphA2-ephrinA5 interaction, averages ± SD)","solubility [2, 5] [mg/mL]","solubility [2, 6] [mg/mL]","solubility [2, 7] [mg/mL]","solubility [2, 8] [mg/mL]","IC50 [1, 9] [nM]",EC50 [3] [nM],"solubility [2, 10] [mg/mL]","solubility [2, 11] [mg/mL]","IC50 ([1]; inhibition of ephrin-A5 binding to EphA2, number of experiments in parentheses, read-out: Inc50 (nM) by ELISA) [nM]",Kd [4] [nM],"solubility ([2]; water, Table 4, second of PBS/H20/DMSO, read-out: Solubility in H20) [mg/mL]",Compound,binding to the EphA2 LBD by ITC ([4]; high biotin concentration (1 mM))
subnanomolar,10,5,5,1,–,–,–,–,–,–,–,"CC(C)C[C@H](NC(=O)[C@H](Cc1c[nH]c2ccccc12)NC(=O)CCN)C(=O)N[C@@H](C)C(=O)N[C@@H](Cc1ccc(O)cc1)C(=O)N1CCC[C@H]1C(=O)N[C@@H](CC(=O)O)C(=O)N[C@@H](CO)C(=O)N[C@H](C(=O)N1CCC[C@H]1C(=O)N[C@@H](Cc1ccc(O)cc1)C(=O)N[C@@H](CCCNC(=N)N)C(=O)N1CCC[C@H]1C(=O)N[C@@H](CCCCN)C(=O)NCC(=O)NCC(=O)N[C@@H](C)C(=O)N[C@@H](Cc1c[nH]c2ccccc12)C(=O)N[C@@H](CC(C)C)C(=O)N[C@@H](C)C(=O)N[C@@H](Cc1ccc(O)cc1)C(=O)N1CCC[C@H]1C(=O)N[C@@H](CC(=O)O)C(=O)N[C@@H](CO)C(=O)N[C@H](C(=O)N1CCC[C@H]1C(=O)N[C@@H](Cc1ccc(O)cc1)C(=O)N[C@@H](CCCNC(=N)N)C(=O)N1CCC[C@H]1C(=O)N[C@@H](CCCCN)C(N)=O)C(C)C)C(C)C [compound 8, linear dimer (head-to-tail)] (H-[βAla]WLAYPDSVPYRPKGGAWLAYPDSVPYRPK-NH2; N-terminus assumed)",–
–,10,5,5,< 0.1,0.54,0.22 ± 0.04,1,–,–,–,–,CC(C)C[C@H](NC(=O)[C@H](Cc1c[nH]c2ccccc12)NC(=O)[C@H](C)NC(=O)CNC(=O)[C@@H](N)Cc1cn(CCCC[C@H](N)C(=O)N[C@@H](C)C(=O)N[C@@H](Cc2c[nH]c3ccccc23)C(=O)N[C@@H](CC(C)C)C(=O)N[C@@H](C)C(=O)N[C@@H](Cc2ccc(O)cc2)C(=O)N2CCC[C@H]2C(=O)N[C@@H](CC(=O)O)C(=O)N[C@@H](CO)C(=O)N[C@H](C(=O)N2CCC[C@H]2C(=O)N[C@@H](Cc2ccc(O)cc2)C(=O)N[C@@H](CCCNC(=N)N)C(=O)N2CCC[C@H]2C(=O)N[C@@H](CCCCN)C(N)=O)C(C)C)nn1)C(=O)N[C@@H](C)C(=O)N[C@@H](Cc1ccc(O)cc1)C(=O)N1CCC[C@H]1C(=O)N[C@@H](CC(=O)O)C(=O)N[C@@H](CO)C(=O)N[C@H](C(=O)N1CCC[C@H]1C(=O)N[C@@H](Cc1ccc(O)cc1)C(=O)N[C@@H](CCCNC(=N)N)C(=O)N1CCC[C@H]1C(=O)N[C@@H](CCCCN)C(N)=O)C(C)C [compound 7],–
–,–,5,–,–,0.77,–,< 0.1,10,–,–,–,CC(C)C[C@H](NC(=O)[C@H](Cc1c[nH]c2ccccc12)NC(=O)CCN)C(=O)N[C@@H](C)C(=O)N[C@@H](Cc1ccc(O)cc1)C(=O)N1CCC[C@H]1C(=O)N[C@@H](CC(=O)O)C(=O)N[C@@H](CO)C(=O)N[C@H](C(=O)N1CCC[C@H]1C(=O)N[C@@H](Cc1ccc(O)cc1)C(=O)N[C@@H](CCCNC(=N)N)C(=O)N1CCC[C@H]1C(=O)N[C@@H](CCCCN)C(=O)NCCCC[C@H](NC(=O)[C@H](CCCCN)NC(=O)[C@@H]1CCCN1C(=O)[C@H](CCCNC(=N)N)NC(=O)[C@H](Cc1ccc(O)cc1)NC(=O)[C@@H]1CCCN1C(=O)[C@@H](NC(=O)[C@H](CO)NC(=O)[C@H](CC(=O)O)NC(=O)[C@@H]1CCCN1C(=O)[C@H](Cc1ccc(O)cc1)NC(=O)[C@H](C)NC(=O)[C@H](CC(C)C)NC(=O)[C@H](Cc1c[nH]c2ccccc12)NC(=O)CCN)C(C)C)C(=O)O)C(C)C [compound 3],–
